Test results published in PubChem BioAssay AID194 (DTP/NCI, 2004).
Values joined by “and” are separate entries in the source; they are usually repeats but may differ in a detail not shown here. Equal values may be shown once. Records with an inconclusive call do not appear.

Tested on: BDF1 mice, B16 melanoma s.c., survival/tumor T/C
Assay: NCI In Vivo Anticancer Drug Screen. Data for tumor model B16 Melanoma (subcutaneous) in B6D2F1 (BDF1) mice
Method: The antitumor activity of compounds was measured in mice bearing transplantable tumors. Survival or tumor size were measured and the results are expressed as the measurement made in the treated group (T) divided by the measurement made in the vehicle treated control group (C). The tumor model used in this assay is B16 Melanoma (subcutaneous) in B6D2F1 (BDF1) mice

[1] = endpoint: median survival time, dose: 4.0 mg/kg/injection, schedule: Q01DX009 (ip), vehicle: saline, higher = longer survival
[2] = endpoint: median survival time, dose: 8.0 mg/kg/injection, schedule: Q01DX009 (ip), vehicle: saline, higher = longer survival
[3] = endpoint: median survival time, dose: 16.0 mg/kg/injection, schedule: Q01DX009 (ip), vehicle: saline, higher = longer survival

With `CN(C)/N=N/c1nc[nH]c1C(N)=O` the T/C (endpoint: median survival time, dose: 12.5 mg/kg/injection, schedule: Q01DX009 (ip), vehicle: Klucel (hydroxypropylcellulose) (HPC), higher = longer survival) was 101 % of control, the T/C (endpoint: median survival time, dose: 25.0 mg/kg/injection, schedule: Q01DX009 (ip), vehicle: Klucel (hydroxypropylcellulose) (HPC), higher = longer survival) was 89 % of control and the T/C (endpoint: median survival time, dose: 37.5 mg/kg/injection, schedule: Q01DX009 (ip), vehicle: saline with Tween-80, higher = longer survival) was 175 % of control. The T/C (endpoint: median survival time, dose: 37.5 mg/kg/injection, schedule: Q01DX009 (ip), vehicle: saline, higher = longer survival) was 110 % of control, the T/C (endpoint: median survival time, dose: 50.0 mg/kg/injection, schedule: Q01DX009 (ip), vehicle: Klucel (hydroxypropylcellulose) (HPC), higher = longer survival) was 119 % of control and the T/C (endpoint: median survival time, dose: 75.0 mg/kg/injection, schedule: Q01DX009 (ip), vehicle: Klucel (hydroxypropylcellulose) (HPC), higher = longer survival) was 160 % of control. The T/C (endpoint: median survival time, dose: 75.0 mg/kg/injection, schedule: Q01DX009 (ip), vehicle: saline with Tween-80, higher = longer survival) was 156 % of control, the T/C (endpoint: median survival time, dose: 75.0 mg/kg/injection, schedule: Q01DX009 (ip), vehicle: saline, higher = longer survival) was 113 % of control and the T/C (endpoint: median survival time, dose: 100.0 mg/kg/injection, schedule: Q01DX009 (ip), vehicle: Klucel (hydroxypropylcellulose) (HPC), higher = longer survival) was 109 % of control. For the same molecule, the T/C (endpoint: median survival time, dose: 150.0 mg/kg/injection, schedule: Q01DX009 (ip), vehicle: Klucel (hydroxypropylcellulose) (HPC), higher = longer survival) was 91 % of control, the T/C (endpoint: median survival time, dose: 150.0 mg/kg/injection, schedule: Q01DX009 (ip), vehicle: saline with Tween-80, higher = longer survival) was 154 % of control and the T/C (endpoint: median tumor weight (est.), dose: 37.0 mg/kg/injection, schedule: Q01DX009 (ip), vehicle: saline with Tween-80, higher = larger tumour) was 50 % of control. For the same molecule, the T/C (endpoint: median tumor weight (est.), dose: 75.0 mg/kg/injection, schedule: Q01DX009 (ip), vehicle: saline with Tween-80, higher = larger tumour) was 110 % of control, the T/C (endpoint: median tumor weight (est.), dose: 150.0 mg/kg/injection, schedule: Q01DX009 (ip), vehicle: Klucel (hydroxypropylcellulose) (HPC), higher = larger tumour) was 59 % of control and the T/C (endpoint: median tumor weight (est.), dose: 150.0 mg/kg/injection, schedule: Q01DX009 (ip), vehicle: saline with Tween-80, higher = larger tumour) was 42 % of control. For the same molecule, the T/C (endpoint: median tumor weight (est.), dose: 300.0 mg/kg/injection, schedule: Q01DX009 (ip), vehicle: saline with Tween-80, higher = larger tumour) was 43 % of control.
With `O=C1c2c(O)ccc(O)c2C(=O)c2c(NCCNCCO)ccc(NCCNCCO)c21` the T/C (endpoint: median survival time, dose: 0.25 mg/kg/injection, schedule: Q01DX009 (ip), vehicle: other, higher = longer survival) was 102 % of control, the T/C (endpoint: median survival time, dose: 0.5 mg/kg/injection, schedule: Q01DX009 (ip), vehicle: other, higher = longer survival) was 89 % of control and the T/C (endpoint: median survival time, dose: 0.5 mg/kg/injection, schedule: Q01DX009 (ip), vehicle: saline with Tween-80, higher = longer survival) was 120 % of control. The T/C (endpoint: median survival time, dose: 1.0 mg/kg/injection, schedule: Q01DX009 (ip), vehicle: other, higher = longer survival) was 106 % of control, the T/C (endpoint: median survival time, dose: 2.0 mg/kg/injection, schedule: Q01DX009 (ip), vehicle: other, higher = longer survival) was 90 % of control and the T/C (endpoint: median survival time, dose: 2.0 mg/kg/injection, schedule: Q01DX009 (ip), vehicle: saline with Tween-80, higher = longer survival) was 102 % of control and 123 % of control.
With `O=NN(CCF)C(=O)NC1CCS(=O)(=O)CC1` the T/C (endpoint: median survival time, dose: 24.0 mg/kg/injection, schedule: Q01DX001 (ip), vehicle: other, higher = longer survival) was 156 % of control and the T/C (endpoint: median survival time, dose: 32.0 mg/kg/injection, schedule: Q01DX001 (ip), vehicle: other, higher = longer survival) was 175 % of control.
In the case of `C[CH2][Ge]1([CH2]C)[CH2]CC2(CCN(CCCN(C)C)C2)C[CH2]1`, the T/C (endpoint: median survival time, dose: 2.0 mg/kg/injection, schedule: Q02DX009 (ip), vehicle: saline, higher = longer survival) is reported as 96 % of control, the T/C [1] is reported as 98 % of control and the T/C (endpoint: median survival time, dose: 4.0 mg/kg/injection, schedule: Q02DX009 (ip), vehicle: saline, higher = longer survival) is reported as 110 % of control. The T/C [2] was 101 % of control, the T/C (endpoint: median survival time, dose: 8.0 mg/kg/injection, schedule: Q02DX009 (ip), vehicle: saline, higher = longer survival) was 102 % of control and the T/C [3] was 98 % of control. The T/C (endpoint: median survival time, dose: 16.0 mg/kg/injection, schedule: Q02DX009 (ip), vehicle: saline, higher = longer survival) was 111 % of control, the T/C (endpoint: median survival time, dose: 32.0 mg/kg/injection, schedule: Q01DX009 (ip), vehicle: saline, higher = longer survival) was 112 % of control and the T/C (endpoint: median survival time, dose: 32.0 mg/kg/injection, schedule: Q02DX009 (ip), vehicle: saline, higher = longer survival) was 109 % of control. For the same molecule, the T/C (endpoint: median survival time, dose: 64.0 mg/kg/injection, schedule: Q01DX009 (ip), vehicle: saline, higher = longer survival) was 97 % of control.
`FC(F)(F)c1nc2nc(Cl)c(Cl)nc2[nH]1` was tested, and the T/C [1] was 109 % of control, the T/C [2] was 105 % of control and the T/C [3] was 118 % of control.
